Test [1] concerns the target Tryptophan 2,3-dioxygenase (Rattus norvegicus, UniProt P21643). As to the kind of experiment: Compound was tested for inhibition of Tryptophan dioxygenase (TDO) from rat liver.
For test [2], the species on record is Rattus norvegicus. Nature of the test: Inhibition of 5-HT reuptake in rat […] was measured. The format is functional, organism-based.

A word on the Ki: it is a dissociation constant, usually derived from enzyme kinetics or from competition with a known ligand. A high value points to lower affinity. As a reminder, the IC50 is the concentration needed to halve the response being measured.

Sequence of Tryptophan 2,3-dioxygenase (P21643 whole entry): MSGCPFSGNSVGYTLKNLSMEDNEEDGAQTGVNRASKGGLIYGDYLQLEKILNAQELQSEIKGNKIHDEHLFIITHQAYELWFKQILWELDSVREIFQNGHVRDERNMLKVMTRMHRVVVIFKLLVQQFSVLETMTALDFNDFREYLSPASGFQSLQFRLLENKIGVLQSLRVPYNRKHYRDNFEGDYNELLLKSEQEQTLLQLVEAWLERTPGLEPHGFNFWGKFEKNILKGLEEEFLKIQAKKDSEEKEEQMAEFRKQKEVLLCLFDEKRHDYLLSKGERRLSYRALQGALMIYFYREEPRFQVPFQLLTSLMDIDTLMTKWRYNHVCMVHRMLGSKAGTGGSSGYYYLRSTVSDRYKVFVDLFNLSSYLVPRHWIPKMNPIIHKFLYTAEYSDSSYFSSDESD

`Fc1ccc2c(/C=C/c3ccncc3)c[nH]c2c1`: the affinity in test [1] corresponds to a Ki of 30 nM. Besides, the IC50 in test [2] was 900 nM.
The matching figures for `C(=C\c1c[nH]c2ccccc12)/c1ccncc1`: 30 nM and 1500 nM.
In test [1], `Fc1ccc2[nH]cc(/C=C/c3cccnc3)c2c1` displayed an inhibition constant (Ki) of 50 nM.
Same read-out and setting: next, `C(=C\c1c[nH]c2ccccc12)/c1ccccn1`: 100 nM; `Fc1ccc2c(/C=C/c3cccnc3)c[nH]c2c1`: 30 nM; `C(=C\c1c[nH]c2ccccc12)/c1cccnc1`: 40 nM.
On the same count and under the same terms, next, `Fc1ccc2[nH]cc(/C=C/c3ccncc3)c2c1`: 40 nM.

The values above are taken from ChEMBL document CHEMBL1149922, “Novel tryptophan dioxygenase inhibitors and combined tryptophan dioxygenase/5-HT reuptake inhibitors” (Bioorg Med Chem Lett, 1996).
